The values below come from patent US10221177B2 (HYDRA BIOSCIENCES, INC., priority 2014, dated 2019).

Structures are written as SMILES.

Sequence of human TRPA1 (O75762 whole entry): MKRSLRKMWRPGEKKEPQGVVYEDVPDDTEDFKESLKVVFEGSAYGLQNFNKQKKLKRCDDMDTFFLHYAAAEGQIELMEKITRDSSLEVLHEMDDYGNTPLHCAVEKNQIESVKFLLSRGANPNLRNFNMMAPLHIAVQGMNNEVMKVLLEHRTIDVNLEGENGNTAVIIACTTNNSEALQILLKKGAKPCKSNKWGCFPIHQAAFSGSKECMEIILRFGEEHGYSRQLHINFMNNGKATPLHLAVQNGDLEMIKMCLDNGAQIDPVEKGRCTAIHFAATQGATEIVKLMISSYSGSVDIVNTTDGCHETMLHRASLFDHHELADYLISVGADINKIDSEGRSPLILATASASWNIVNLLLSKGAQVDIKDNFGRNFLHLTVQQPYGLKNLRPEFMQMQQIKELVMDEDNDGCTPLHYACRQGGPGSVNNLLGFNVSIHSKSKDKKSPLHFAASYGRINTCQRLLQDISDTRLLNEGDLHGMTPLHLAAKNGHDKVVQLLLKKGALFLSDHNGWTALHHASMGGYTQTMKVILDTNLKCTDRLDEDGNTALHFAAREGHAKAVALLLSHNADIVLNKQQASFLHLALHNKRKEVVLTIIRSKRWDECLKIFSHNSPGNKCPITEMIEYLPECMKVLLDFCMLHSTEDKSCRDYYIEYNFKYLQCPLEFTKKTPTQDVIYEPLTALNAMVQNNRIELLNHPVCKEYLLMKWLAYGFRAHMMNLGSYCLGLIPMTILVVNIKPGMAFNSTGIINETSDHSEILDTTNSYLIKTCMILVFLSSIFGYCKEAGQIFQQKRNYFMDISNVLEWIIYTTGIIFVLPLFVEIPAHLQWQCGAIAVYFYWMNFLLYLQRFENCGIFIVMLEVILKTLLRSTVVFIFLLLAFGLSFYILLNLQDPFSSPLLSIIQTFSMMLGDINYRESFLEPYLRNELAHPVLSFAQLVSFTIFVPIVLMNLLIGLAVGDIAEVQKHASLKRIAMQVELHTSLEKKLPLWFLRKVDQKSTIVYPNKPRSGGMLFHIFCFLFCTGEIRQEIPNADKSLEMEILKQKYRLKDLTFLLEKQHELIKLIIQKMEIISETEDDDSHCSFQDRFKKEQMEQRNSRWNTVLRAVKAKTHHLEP

This assay addresses human TRPA1 (Homo sapiens (Human), UniProt O75762). Description: In vitro inhibition of human TRPA1, whole cell patch configuration. Type of assay: cell-based. The conditions noted are these: current activation 10 μM AITC, tested concentrations 320 pM to 3.2 μM, read-out: hTRPA1 IC50. As for the experimental part:
All currents were recorded in whole-cell configuration using EPC-9 and EPC-10 amplifiers and Patchmaster software (HEKA) or similar. […] The standard bath solution contained 150 mM NaCl, 10 mM HEPES, 10 mM glucose, 4.5 mM KCl, 1 mM EGTA, 3 mM MgCl2, with pH adjusted to 7.4 with NaOH. In some instances, 2 mM CaCl2 was added in place of EGTA and the concentration of MgCl2 was reduced to 1 mM.
Data were collected either by continuous recordings at −60 mV or by applying voltage ramps from a holding potential of −40 mV every 4 s. Continuous recordings were collected at 400 Hz and digitally filtered off-line at 10 Hz for presentation. Voltage ramps were applied from −100 mV or −80 mV to +100 mV or +80 mV over the course of 400 ms, and data were collected at 10 kHz and filtered at 2.9 kHz. Inward and outward currents were analyzed from the ramps at −80 and 80 mV, respectively. Liquid junction potential correction was not used.
Solutions were switched using a gravity-fed continuous focal perfusion system. To achieve rapid temperature changes, two temperature control, and perfusion systems were employed simultaneously. […] Temperatures were confirmed using a thermistor (Warner Instruments, TA-29), with temperatures at the recorded cell estimated to be within +/−2° C. of those reported.
The antagonist effects of compounds of Formula (I) against human TRPA1 (“hTRPA1”) in a whole cell patch configuration were evaluated using the in vitro assay described above.
For the compound `C[C@@H](C(=O)Nc1cccc(-c2ccc(C(F)(F)F)nc2)n1)n1cnc2c1c(=O)n(Cc1ccccn1)c(=O)n2C` [Compound 1, (2S)-2-(3-methyl-2,6-dioxo-1-(pyridin-2-ylmethyl)-1,2,3,6-tetrahydropurin-7-yl)-N-(6-(6-(trifluoromethyl)pyridin-3-yl)pyridin-2-yl)propanamide], the IC50 was found to be 28 nM.
As for `CC(=O)Cn1c(=O)c2c(ncn2[C@@H](C)C(=O)Nc2cccc(-c3ccc(C(F)(F)F)nc3)n2)n(C)c1=O` [Compound 2, (S)-2-(3-methyl-2,6-dioxo-1-(2-oxopropyl)-2,3-dihydro-1H-purin-7(6H)-yl)-N-(6′-(trifluoromethyl)-[2,3′-bipyridin]-6-yl)propanamide], the IC50 was 21 nM.
For `CC(=O)Cn1c(=O)c2c(ncn2[C@@H](C)C(=O)Nc2cncc(-c3ccc(C(F)(F)F)nc3)n2)n(C)c1=O` [Compound 3, (S)-2-(3-methyl-2,6-dioxo-1-(2-oxopropyl)-2,3-dihydro-1H-purin-7(6H)-yl)-N-(6-(6-(trifluoromethyl)pyridin-3-yl)pyrazin-2-yl)propanamide], the IC50 was 49 nM.
Regarding `CC(=O)Cn1c(=O)c2c(ncn2[C@@H](C)C(=O)Nc2cccc(-c3cnc(C(F)(F)F)nc3)n2)n(C)c1=O` [Compound 4, (S)-2-(3-methyl-2,6-dioxo-1-(2-oxopropyl)-2,3-dihydro-1H-purin-7(6H)-yl)-N-(6-(2-(trifluoromethyl)pyrimidin-5-yl)pyridin-2-yl)propanamide], the IC50 was 25 nM.
In the case of `C[C@@H](C(=O)Nc1cccc(-c2cnc(C(F)(F)F)nc2)n1)n1cnc2c1c(=O)n(Cc1ccccn1)c(=O)n2C` [Compound 5, (S)-2-(3-methyl-2,6-dioxo-1-(pyridin-2-ylmethyl)-2,3-dihydro-1H-purin-7(6H)-yl)-N-(6-(2-(trifluoromethyl)pyrimidin-5-yl)pyridin-2-yl)propanamide] it was 39 nM.
On to `CC(=O)Cn1c(=O)c2c(ncn2[C@@H](C)C(=O)Nc2cncc(-c3cnc(C(F)(F)F)nc3)n2)n(C)c1=O` [Compound 6, (S)-2-(3-methyl-2,6-dioxo-1-(2-oxopropyl)-2,3-dihydro-1H-purin-7(6H)-yl)-N-(6-(2-(trifluoromethyl)pyrimidin-5-yl)pyrazin-2-yl)propanamide], for which the IC50 came to 39 nM.
The result for `C[C@@H](C(=O)Nc1cncc(-c2cnc(C(F)(F)F)nc2)n1)n1cnc2c1c(=O)n(Cc1ccccn1)c(=O)n2C` [Compound 8, (S)-2-(3-methyl-2,6-dioxo-1-(pyridin-2-ylmethyl)-2,3-dihydro-1H-purin-7(6H)-yl)-N-(6-(2-(trifluoromethyl)pyrimidin-5-yl)pyrazin-2-yl)propanamide] reads 44 nM; that for `C[C@@H](C(=O)Nc1cncc(-c2ccc(C(F)(F)F)nc2)n1)n1cnc2c1c(=O)n(Cc1ccccn1)c(=O)n2C` [Compound 9, (2S)-2-(3-methyl-2,6-dioxo-1-(pyridin-2-ylmethyl)-1,2,3,6-tetrahydropurin-7-yl)-N-(6-(6-(trifluoromethyl)pyridin-3-yl)pyrazin-2-yl)propanamide], 59 nM; that for `CC(C(=O)Nc1cccc(-c2cnc(C(F)(F)F)nc2)n1)n1cnc2c1c(=O)n(CC#N)c(=O)n2C` (stereo not drawn) [Compound 10, 2-(1-(cyanomethyl)-3-methyl-2,6-dioxo-2,3-dihydro-1H-purin-7(6H)-yl)-N-(6-(2-(trifluoromethyl)pyrimidin-5-yl)pyridin-2-yl)propanamide], 24 nM.
For `C[C@@H](C(=O)Nc1cccc(-c2cnc(N3CC4CC4C3)nc2)n1)n1cnc2c1c(=O)n(CC#N)c(=O)n2C` (stereo partly drawn) [Compound 11, (2S)—N-(6-(2-(3-azabicyclo[3.1.0]hexan-3-yl)pyrimidin-5-yl)pyridin-2-yl)-2-(1-(cyanomethyl)-3-methyl-2,6-dioxo-2,3-dihydro-1H-purin-7(6H)-yl)propanamide], the IC50 turned out to be 5 nM.
Consider `C[C@@H](C(=O)Nc1cncc(-c2cnc(N3CC4CC4C3)nc2)n1)n1cnc2c1c(=O)n(CC#N)c(=O)n2C` (stereo partly drawn) [Compound 12], for which the IC50 is 7 nM.
As to `CCC(=O)Cn1c(=O)c2c(ncn2[C@@H](C)C(=O)Nc2cncc(-c3cnc(N4CC5CC5C4)nc3)n2)n(C)c1=O` (stereo partly drawn) [Compound 13, (2S)—N-(6-(2-(3-azabicyclo[3.1.0]hexan-3-yl)pyrimidin-5-yl)pyrazin-2-yl)-2-(3-methyl-2,6-dioxo-1-(2-oxobutyl)-2,3-dihydro-1H-purin-7(6H)-yl)propanamide], the IC50 is 8 nM.
Consider `CC(=O)Cn1c(=O)c2c(ncn2[C@@H](C)C(=O)Nc2csc(-c3cnc(N4CCC[C@H]4C(F)(F)F)nc3)n2)n(C)c1=O` [Compound 16, (S)-2-(3-methyl-2,6-dioxo-1-(2-oxopropyl)-2,3-dihydro-1H-purin-7(6H)-yl)-N-(2-(2-((S)-2-(trifluoromethyl)pyrrolidin-1-yl)pyrimidin-5-yl)thiazol-4-yl)propanamide], for which the IC50 turned out to be 2 nM.
Consider `CCC(=O)Cn1c(=O)c2c(ncn2C(C)C(=O)Nc2ccnc(-c3cnc(N4CC5CC5C4)nc3)n2)n(C)c1=O` (stereo not drawn) [Compound 17, N-(2′-(3-azabicyclo[3.1.0]hexan-3-yl)-2,5′-bipyrimidin-4-yl)-2-(3-methyl-2,6-dioxo-1-(2-oxobutyl)-2,3-dihydro-1H-purin-7(6H)-yl)propanamide], for which the IC50 was 8 nM.
In the case of `CC(=O)Cn1c(=O)c2c(ncn2[C@@H](C)C(=O)Nc2csc(-c3ccc(Cl)c(Cl)c3)n2)n(C)c1=O` [Compound 20, (S)—N-(2-(3,4-dichlorophenyl)thiazol-4-yl)-2-(3-methyl-2,6-dioxo-1-(2-oxopropyl)-2,3-dihydro-1H-purin-7(6H)-yl)propanamide], the IC50 was found to be 2 nM.
Take `C[C@@H](C(=O)Nc1cncc(-c2cnc(C(F)(F)F)nc2)n1)n1cnc2c1c(=O)n(CC#N)c(=O)n2C` [Compound 22, (S)-2-(1-(cyanomethyl)-3-methyl-2,6-dioxo-2,3-dihydro-1H-purin-7(6H)-yl)-N-(6-(2-(trifluoromethyl)pyrimidin-5-yl)pyrazin-2-yl)propanamide]: the IC50 is 203 nM.
In the case of `Cc1cc(Cn2c(=O)c3c(ncn3[C@@H](C)C(=O)Nc3cccc(-c4ccc(C(F)(F)F)cc4)n3)n(C)c2=O)no1` [Compound 23], the concentration for half-maximal inhibition (IC50) came out at 5 nM.
For the compound `CC(C(=O)Nc1ccnc(-c2cnc(N3CC4CC4C3)nc2)n1)n1cnc2c1c(=O)n(CC#N)c(=O)n2C` (stereo not drawn) [Compound 24, N-(2′-(3-azabicyclo[3.1.0]hexan-3-yl)-2,5′-bipyrimidin-4-yl)-2-(1-(cyanomethyl)-3-methyl-2,6-dioxo-2,3-dihydro-1H-purin-7(6H)-yl)propanamide], the IC50 is 10 nM.
`CCC(=O)Cn1c(=O)c2c(ncn2[C@@H](C)C(=O)Nc2cccc(-c3cnc(N4CC5C(C4)C5(F)F)nc3)n2)n(C)c1=O` (stereo partly drawn) [Compound 26, (2S)—N-(6-(2-(6,6-difluoro-3-azabicyclo[3.1.0]hexan-3-yl)pyrimidin-5-yl)pyridin-2-yl)-2-(3-methyl-2,6-dioxo-1-(2-oxobutyl)-2,3-dihydro-1H-purin-7(6H)-yl)propanamide]: the IC50 was 1 nM.
For the compound `CCN(CC)c1ncc(-c2cccc(NC(=O)[C@H](C)n3cnc4c3c(=O)n(Cc3cc(C)on3)c(=O)n4C)n2)cn1` [Compound 27, (S)—N-(6-(2-(diethylamino)pyrimidin-5-yl)pyridin-2-yl)-2-(3-methyl-1-((5-methylisoxazol-3-yl)methyl)-2,6-dioxo-2,3-dihydro-1H-purin-7(6H)-yl)propanamide], the half-maximal inhibitory concentration (IC50) worked out at 2 nM.
`C[C@@H](C(=O)Nc1csc(-c2cnc(N3CCC[C@H]3C(F)(F)F)nc2)n1)n1cnc2c1c(=O)n(CC#N)c(=O)n2C` [Compound 28, (S)-2-(1-(cyanomethyl)-3-methyl-2,6-dioxo-2,3-dihydro-1H-purin-7(6H)-yl)-N-(2-(2-((S)-2-(trifluoromethyl)pyrrolidin-1-yl)pyrimidin-5-yl)thiazol-4-yl)propanamide]: the IC50 is 1 nM.
For the compound `C[C@@H](C(=O)Nc1csc(-c2ccc(Cl)c(Cl)c2)n1)n1cnc2c1c(=O)n(CC#N)c(=O)n2C` [Compound 29, (S)-2-(1-(cyanomethyl)-3-methyl-2,6-dioxo-2,3-dihydro-1H-purin-7(6H)-yl)-N-(2-(3,4-dichlorophenyl)thiazol-4-yl)propanamide], the IC50 was determined as 1 nM.
In the case of `C[C@@H](C(=O)Nc1cccc(-c2cnc(N3CC4C(C3)C4(F)F)nc2)n1)n1cnc2c1c(=O)n(CC#N)c(=O)n2C` (stereo partly drawn) [Compound 30, (2S)-2-(1-(cyanomethyl)-3-methyl-2,6-dioxo-2,3-dihydro-1H-purin-7(6H)-yl)-N-(6-(2-(6,6-difluoro-3-azabicyclo[3.1.0]hexan-3-yl)pyrimidin-5-yl)pyridin-2-yl)propanamide] it was 3 nM; in that of `CC(=O)Cn1c(=O)c2c(ncn2[C@@H](C)C(=O)Nc2csc(-c3cnc(C(F)(F)F)nc3)n2)n(C)c1=O` [Compound 31, (S)-2-(3-methyl-2,6-dioxo-1-(2-oxopropyl)-2,3-dihydro-1H-purin-7(6H)-yl)-N-(2-(2-(trifluoromethyl)pyrimidin-5-yl)thiazol-4-yl)propanamide], 16 nM.
